Data reported in PubChem BioAssay (NCI).
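1) Cells in 96-well plates. 2) Compound, 48 h, 5 concentrations. 3) Linear interpolation between surrounding doses. 4) Unreached endpoint = highest concentration. Abbreviation: GI50, concentration required for 50% inhibition of growth. TGI marks complete inhibition of growth.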

How the values were obtained:
Assay in all cases: growth of human tumour cells (NCI), 48 h
[1] = tested on: OVCAR-8 ovarian
[2] = tested on: SW-620 colon
[3] = tested on: CCRF-CEM leukemia
[4] = tested on: HCT-15 colon
[5] = tested on: SF-539 CNS
[6] = tested on: UACC-62 melanoma
[7] = tested on: SK-OV-3 ovarian
[8] = tested on: OVCAR-4 ovarian
[9] = tested on: SK-MEL-5 melanoma
[10] = tested on: SNB-75 CNS

| Structure (SMILES) | TGI [1] | TGI [2] | TGI [3] | TGI [4] | TGI [5] | TGI [6] | TGI [7] | TGI [8] | TGI [9] | TGI [10] | GI50 [1] | GI50 [2] | GI50 [6] | GI50 [7] | GI50 [4] | GI50 [9] | GI50 [5] | GI50 [8] | GI50 [3] | GI50 [10] |
| --- | --- | --- | --- | --- | --- | --- | --- | --- | --- | --- | --- | --- | --- | --- | --- | --- | --- | --- | --- | --- |
| CC(C)(C)NC(=O)C12C3C4C1C1C2C3C41I (stereo unspecified) | > 100 µM | > 100 µM | > 100 µM | > 100 µM | > 100 µM | – | – | – | – | – | – | – | – | – | – | – | – | – | – | – |
| O=C1/C=C(/c2ccc(O)cc2)[C@H](O)Cc2ccc(OC3OC(CO)C(O)C(O)C3O)cc2O1 (stereo partly specified) (tested in a mixture with another compound) | > 100 µM | > 100 µM | – | > 100 µM | > 100 µM | > 100 µM | > 100 µM | > 100 µM | > 100 µM | – | – | – | – | – | – | – | – | – | – | – |
| NC(N)=Nc1nc2cc(N)ccc2o1 | > 100 µM | > 100 µM | > 100 µM | > 100 µM | > 100 µM | > 100 µM | > 100 µM | > 100 µM | – | > 100 µM | – | – | – | – | – | – | – | – | – | – |
| Cc1cc(C)c(-c2noc(-c3ccc(Cl)cc3)c2C2=NCCN2)c(C)c1 | – | > 100 µM | 74.7 µM | 57.4 µM | 32 µM | 33.8 µM | > 100 µM | > 100 µM | 24 µM | 37.3 µM | – | – | – | – | – | – | – | – | – | – |
| COC(=O)C1=C(SC)SC2(C(=O)OC)C3C=C(C)C4C(N13)C42C(=O)OC (stereo unspecified) | > 100 µM | > 100 µM | > 100 µM | > 100 µM | > 100 µM | > 100 µM | > 100 µM | – | > 100 µM | > 100 µM | – | – | – | – | – | – | – | – | – | – |
| O=C(N/C(=C\c1cc(Cl)ccc1Cl)c1nc2ccccc2[nH]1)c1ccccc1 | 46.9 µM | 52.8 µM | 88.3 µM | 71.9 µM | > 100 µM | > 100 µM | > 100 µM | > 100 µM | 53.3 µM | – | – | – | – | – | – | – | – | – | – | – |
| N#CC1=C(N)NC(=S)NC1c1ccc(-c2ccc(-c3nc4ccccc4s3)cc2)o1 (stereo unspecified) | > 50 µM | > 50 µM | – | > 50 µM | 31.7 µM | > 50 µM | > 50 µM | – | 39.4 µM | – | 35.1 µM | 37.5 µM | 16.1 µM | > 50 µM | 17.5 µM | 14.6 µM | 15.2 µM | – | – | – |
| COc1ccc(-c2cc(-c3ccco3)c(C#N)c(=O)n2C2OC(OC(=O)c3ccccc3)C(OC(=O)c3ccccc3)C2OC(=O)c2ccccc2)cc1 (stereo unspecified) | > 100 µM | > 100 µM | > 100 µM | > 100 µM | > 100 µM | – | – | > 100 µM | > 100 µM | > 100 µM | – | – | – | – | – | – | – | – | – | – |
| C=C1c2c(C)nn(-c3ccccc3)c2N(C)C23C[C@@H]1C1(C)c4c(C)nn(-c5ccccc5)c4N(C)C(C)(C[C@H]12)C3 (stereo partly specified) | > 100 µM | – | – | > 100 µM | > 100 µM | > 100 µM | 21.8 µM | > 100 µM | – | – | 5.41 µM | – | 4.38 µM | 4.64 µM | 3.67 µM | – | 26.7 µM | 4.49 µM | – | – |
| O=C1C=Cc2cc3ccccc3c3cccc1c23 | 16.7 µM | 72.9 µM | 18.3 µM | 18.6 µM | – | 6.43 µM | > 100 µM | > 100 µM | 5.87 µM | 72.3 µM | 3.3 µM | 5.22 µM | 1.81 µM | 19.5 µM | 3.21 µM | 2.73 µM | – | 14.5 µM | 4.35 µM | 11.8 µM |
